The supplement of paper PMC10307832

Experiments:
Assay in all cases: relative viability (nuclei count vs DMSO), 5 days (fraction); higher = more cells survive
FG-4592 + Olaparib = compound: Cc1nc(C(=O)NCC(=O)O)c(O)c2ccc(Oc3ccccc3)cc12 [FG-4592] + O=C(c1cc(Cc2n[nH]c(=O)c3ccccc23)ccc1F)N1CCN(C(=O)C2CC2)CC1 [Olaparib] (partner 8 µM)
How it was run: (§1)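 Lung cancer cell lines were seeded in 1536-well plates and dosed by pin tool the next day, with either a single drug or a fixed anchor-drug dose combined with five library-drug doses (not always all listed) spaced in √10 steps. Five days later, one step fixed the cells and stained their nuclei (final 0.05% Triton X-100, 1% formaldehyde, 1 ug/ml Hoechst), and nuclei were counted on 4× images. Relative viability is the nuclei count in treated wells divided by the count in vehicle wells, and each value is the median of duplicate plates.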

FG-4592 + Tozasertib = compound: Cc1nc(C(=O)NCC(=O)O)c(O)c2ccc(Oc3ccccc3)cc12 [FG-4592] + Cc1cc(Nc2cc(N3CCN(C)CC3)nc(Sc3ccc(NC(=O)C4CC4)cc3)n2)n[nH]1 [Tozasertib] (partner 0.1 µM)
How it was run: as §1

FG-4592 + Alpelisib = compound: Cc1nc(C(=O)NCC(=O)O)c(O)c2ccc(Oc3ccccc3)cc12 [FG-4592] + Cc1nc(NC(=O)N2CCC[C@H]2C(N)=O)sc1-c1ccnc(C(C)(C)C(F)(F)F)c1 [Alpelisib] (partner 2 µM)
How it was run: as §1

IU1-47 + Lapatinib = compound: CC1=CC(=C(N1C2=CC=C(C=C2)Cl)C)C(=O)CN3CCCCC3 [IU1-47] + CS(=O)(=O)CCNCc1ccc(-c2ccc3ncnc(Nc4ccc(OCc5cccc(F)c5)c(Cl)c4)c3c2)o1 [Lapatinib] (partner 2 µM)
How it was run: as §1

Row | Cell Line | relative viability (FG-4592 + Olaparib; first compound 0.08 µM) | relative viability (FG-4592 + Olaparib; first compound 0.253 µM) | relative viability (FG-4592 + Olaparib; first compound 0.8 µM) | relative viability (FG-4592 + Olaparib; first compound 2.53 µM) | relative viability (FG-4592 + Olaparib; first compound 8 µM) | relative viability (FG-4592 + Tozasertib; first compound 0.08 µM) | relative viability (FG-4592 + Tozasertib; first compound 0.253 µM) | relative viability (FG-4592 + Tozasertib; first compound 0.8 µM) | relative viability (FG-4592 + Tozasertib; first compound 2.53 µM) | relative viability (FG-4592 + Tozasertib; first compound 8 µM) | relative viability (FG-4592 + Alpelisib; first compound 0.08 µM) | relative viability (FG-4592 + Alpelisib; first compound 0.253 µM) | relative viability (FG-4592 + Alpelisib; first compound 0.8 µM) | relative viability (FG-4592 + Alpelisib; first compound 2.53 µM) | relative viability (FG-4592 + Alpelisib; first compound 8 µM) | relative viability (IU1-47 + Lapatinib; first compound 0.08 µM) | relative viability (IU1-47 + Lapatinib; first compound 0.253 µM) | relative viability (IU1-47 + Lapatinib; first compound 0.8 µM) | relative viability (IU1-47 + Lapatinib; first compound 2.53 µM) | relative viability (IU1-47 + Lapatinib; first compound 8 µM)
1 | ChaGo-K-1 | 0.44 | 0.399 | 0.4 | 0.461 | 0.456 | 0.241 | 0.219 | 0.224 | 0.237 | 0.208 |  |  |  |  |  |  |  |  |  | 
2 | EBC-1 | 0.83 | 0.663 | 0.718 | 0.659 | 0.662 |  |  |  |  |  | 0.895 | 0.816 | 0.736 | 0.693 | 0.814 | 0.214 | 0.216 | 0.218 | 0.226 | 0.205
3 | EKVX | 0.748 | 0.844 | 0.721 | 0.901 | 0.905 | 0.397 | 0.403 | 0.47 | 0.412 | 0.387 | 0.786 | 0.858 | 0.932 | 0.79 | 0.932 | 0.214 | 0.27 | 0.199 | 0.214 | 0.219
4 | EMC-BAC-2 | 0.469 | 0.491 | 0.456 | 0.49 | 0.492 | 0.262 | 0.277 | 0.27 | 0.301 | 0.286 | 0.745 | 0.718 | 0.705 | 0.764 | 0.713 | 0.947 | 0.944 | 0.966 | 0.955 | 0.879
5 | EPLC-272H | 0.665 | 0.633 | 0.886 | 0.74 | 0.697 | 0.24 | 0.286 | 0.204 | 0.378 | 0.271 | 0.834 | 0.799 | 0.643 | 0.946 | 0.887 | 1.16 | 0.925 | 0.965 |  | 0.528
6 | H3255 | 0.586 | 0.546 | 0.611 | 0.629 | 0.622 | 0.718 | 0.626 | 0.608 | 0.601 | 0.642 | 0.634 | 0.664 | 0.67 | 0.791 | 0.81 | 0.242 | 0.242 | 0.256 | 0.238 | 0.246
7 | HARA |  |  |  | 0.738 | 0.987 | 0.12 | 0.138 | 0.0931 | 0.115 | 0.104 | 0.805 | 0.728 |  | 0.945 | 0.827 | 0.849 | 0.817 | 0.884 | 0.694 | 0.563
8 | HCC-15 | 0.684 | 0.709 | 0.741 | 0.615 | 0.719 | 0.333 | 0.42 | 0.395 | 0.391 | 0.444 | 0.883 | 0.856 | 0.913 | 0.871 | 0.915 | 0.897 | 0.854 | 0.999 | 0.677 | 0.798
9 | HCC-44 | 0.971 | 0.921 | 1.03 | 1 | 1.01 | 1.08 | 0.84 |  | 0.783 | 0.852 | 0.767 | 0.786 | 0.876 | 0.936 | 0.797 | 0.985 | 1.03 | 1.07 | 1.05 | 0.825
